Source: patent publication US20140050754A1, “IMMUNOGENIC CHIKUNGUNYA VIRUS PEPTIDES” (priority 2010, published 2014)

Columns and labels:
[1] = tested on: E2EP3-specific IgG3 antibodies in pooled patients' plasma; assay: Affinity depletion of anti-E2EP3 antibodies, read by E2EP3 specific peptide-based ELISA; assay type: binding, human; conditions: pooled plasma median 10 days pio, relative to non-depleted samples
Description: (§1) For affinity depletion of human anti-E2EP3 antibodies, synthetic biotinylated E2EP3 peptide (EMC microcollections GmbH) was added at 450 ng/well to streptavidin-coated plates (Pierce) and incubated at room temperature for about 1 hour in PBS containing 0.1% Tween-20 (0.1% PBST). Human plasma samples were added and incubated for about 25 minutes at room temperature for absorption. The unbound portion was collected after 21 rounds of absorption. ELISA analysis was performed to verify the levels of the antibodies during affinity depletion.
Plasma samples (Median 10 days pio) were incubated with E2EP3 (K3, N5, K10), E2EP3 with double alanine substitution at lysine residues (K3A, N5, K10A) or triple alanine substitution at lysine and asparagine (K3A, N5A, K10A) peptides. E2EP3 specific peptide-based ELISA was performed to measure the depletion efficiency. Outputs were expressed as percentage control IgG3 titer from non-depleted samples. Data were presented as mean±SD. Examples were performed in triplicates.

[2] = tested on: CHIKV (SGP11) infection of HEK 293T cells; assay: Affinity depletion of anti-E2EP3 antibodies, read by in vitro neutralization assay; assay type: cell-based, Chikungunya virus; conditions: plasma 1:500; about 20% with non-depleted plasma
Description: (§2) Neutralizing activity of CHIKV-infected patient samples were test in triplicates and were analyzed by immunofluorescence-based cell infection assay in HEK 293T cells, using Singapore strain CHIKV (SGP11). CHIKV were mixed at MOI 10 with diluted (1:100, 500 or 1,000) heat-inactivated human plasma and incubated for 2 hours at about 37° C. with gentle agitation (350 rpm). Virus-antibody mixtures were then added to HEK 293T cells seeded in 96-well plates and incubated for 1.5 hours at about 37° C. Virus inoculums (medium) were removed, and cells were replenished with DMEM medium supplied with 5% FBS and incubated for about 6 hours at about 37° C. before fixation with 4% paraformaldehyde followed by immunofluorescence quantification using the Cellomics ArrayScan V. The Cellomics ArrayScan. V was used as a complementary means of assessing neutralization capabilities of patients' plasma (same set-up as mentioned above), but involves an assessment endpoint at 6 hours post-infection (pi) to capture possible early protective responses against virus infection. Percentage infectivity was detected with High Content Screening and was calculated according to the equation: % Infectivity=100×(% responder from sero-neutralization group/% responder from virus infection group).
as §1
In FIG. 9(d), in vitro neutralizing activity of anti-E2EP3 antibodies against CHIKV-infected patients' plasma samples was observed. […] Outputs were expressed as percentage control infection. […]

[3] = tested on: anti-CHIKV IgG3 antibodies in pooled patients' plasma; assay: Affinity depletion of anti-E2EP3 antibodies, read by virion-based ELISA; assay type: binding, human; conditions: pooled plasma median 10 days pio, whole virus ELISA, relative to non-depleted samples
Description: […]; 50 μl/well). Wells were blocked with PBST-milk (PBS, 0.05% Tween 20, 5% non-fat milk) and plates were incubated for about 1.5 hours at about 37° C. Plasma samples were then diluted 1:500, 1:2000 in PBST-milk and incubated 1 hour at about 37° C. HRP-conjugated mouse anti-human IgG, IgG1, IgG2, IgG3, IgG4 and IgM (Molecular Probes) were used to detect human antibodies bound to virus-coated wells. Reactions were developed using TMB substrate (Sigma-Aldrich) and stopped with stopping reagent (Sigma-Aldrich). The absorbance was measured at 450 nm. Healthy donor samples were used as controls. ELISA determinations were done in duplicates and the values plotted as means±standard error means (SEM).
as §1
In FIG. 9(c), depleted samples as described in FIG. 9(b) were subjected to anti-CHIKV IgG3 antibodies detection. Virion-based ELISA was performed as described to measure the depletion efficiency. Outputs were expressed as percentage control IgG3 titer from non-depleted samples. Data were presented as mean±SD. Examples were performed in triplicates.

[4] = tested on: CHIKV infection of HEK 293T cells; assay: Peptide blocking assay with NHP plasma followed by in vitro neutralization assay; assay type: cell-based, Chikungunya virus; conditions: NHP plasma dilution series 1:100 to 1:3200, compared to untreated plasma
CHIKV (SGP11) [5] = assay: CHIKV challenge of vaccinated mice: viremia by virus plaque assay; assay type: in vivo; conditions: 2 days post-challenge, challenge 30 days post-vaccination with 10^6 PFU s.c.; PBS control 4,500
Description: (§3) Lyophilized KLH-E2EP3 peptide was dissolved in DMSO (Sigma-Aldrich) to a working concentration of 5 mg/mL. Three-weeks old, female, C57BL/6J (sample size, n=7) were vaccinated subcutaneously in the abdominal flank with 100 μg of KLH-E2EP3 peptide prepared in 100 μl emulsion with 50% Complete Freund's Adjuvant (CFA) (Sigma-Aldrich) in PBS. Vaccinated mice were further boosted another two times at day 14 and day 21 with 50 μg of the peptide prepared in Incomplete Freund's Adjuvant (IFA) (Sigma-Aldrich). Control mice (n=7) were vaccinated with PBS/CFA and PBS/IFA on first vaccination and subsequent booster shots respectively. […] Viremia and degree of inflammation were monitored. […] Hind footpads of mice were measured daily using a vernier calliper from day 0 to day 14 post-infection. Measurements were done for the height (thickness) and the breadth of the foot and quantified as [height×breadth]. Degree of inflammation was expressed as relative increase in footpad size as compared to pre-infection with the following formula: [(day x−day 0)÷day 0] where x is the footpad measurements for each respective day post-infection.
(§4) Mice were immunized with E2EP3 peptide complex to KLH or PBS Control emulsified with Complete Freund's Adjuvant (CFA) subcutaneously, and were boosted two more times with Incomplete Freund's Adjuvant (IFA). […] Outputs were expressed as percentage infection relative to PBS Control. […]

CHIKV infection in vitro = assay: In vitro neutralizing activity of E2EP3-vaccinated mouse sera; assay type: cell-based, Chikungunya virus; conditions: sera 27 days post-vaccination, dilution 1:100
Description: as §2, with “V was used as a complementary means of assessing neutralization capabilities of patients' plasma (same set-up as mentioned above), but involves an assessment endpoint at 6 hours post-infection (pi) to capture possible early protective responses against virus infection.” left out
Lyophilized KLH-E2EP3 peptide was dissolved in DMSO (Sigma-Aldrich) to a working concentration of 5 mg/mL. […] Viremia and degree of inflammation were monitored. […] Hind footpads of mice were measured daily using a vernier calliper from day 0 to day 14 post-infection. Measurements were done for the height (thickness) and the breadth of the foot and quantified as [height×breadth]. […]

C57BL/6J mice = assay: KLH-E2EP3 vaccination of mice: E2EP3 specific peptide-based ELISA; assay type: in vivo; conditions: KLH-linked E2EP3 with CFA/IFA
Description: as §3
Importantly, the sera obtained at 27 days post-vaccination were able to neutralize CHIKV-infection in vitro. In FIGS. 17(a) and 17(b), mouse anti-E2EP3 IgG antibodies were detected after the second and third vaccination. All outputs were expressed as mean±SD. […]

CHIKV (SGP11) [6] = assay: CHIKV challenge of vaccinated mice: footpad swelling (inflammation); assay type: in vivo; conditions: day 0 to day 14 post-challenge
Description: as §3, §4

[7] = tested on: CHIKV (SGP11) infection of HEK 293T cells; assay: Peptide blocking assay with human plasma followed by sero-neutralization assay; assay type: cell-based, Chikungunya virus; conditions: patients' plasma pools 1:500; 20% without peptide
Description: as §2, with “group). […]” for “group).”
Outputs were expressed as percentage control infection. […]

Substance | E2EP3-specific IgG3 depleted from patients' plasma by surface-bound peptide [1] | virus infectivity (percentage control infection) with peptide-depleted plasma [2] | reduction of total anti-CHIKV IgG3 titer after depletion with peptide [3] | effect of soluble peptide on neutralization by CHIKV-infected NHP plasma [4] | CHIKV viremia (CHIKV (SGP11) [5]) | reduction of infectivity compared to the PBS-vaccinated control group (CHIKV infection in vitro) | anti-E2EP3 IgG titer (C57BL/6J mice; 19 days post-vaccination, after 1st boost) | anti-E2EP3 IgG titer (C57BL/6J mice; 27 days post-vaccination, after 2nd boost) | maximal footpad swelling of PBS-vaccinated group relative to E2EP3-vaccinated group (CHIKV (SGP11) [6]) | CHIKV infection (percentage control infection) after blocking with soluble E2EP3 peptide [7]
K3A/K10A (STADNFNVYAATRPYLAHC) | 30% | only a gradual decrease of the neutralizing efficacy | 40% | – | – | – | – | – | – | –
K3A/N5A/K10A (STADAFNVYAATRPYLAHC) | 15% | only a gradual decrease of the neutralizing efficacy | 20% | – | – | – | – | – | – | –
STKDNFNVYKATRPYLAHC [E2EP3] | – | more than 50% | ~80% | abrogated the inhibitory effect of monkey plasma samples significantly | 2,000 pfu/mL | approximately 40% | Significant anti-E2EP3 titer | further increased | more than twice | ~40%
